Experimental data published in patent US20240010635A1, “NOVEL INDIRUBIN DERIVATIVES HAVING HETEROBICYCLIC MOIETIES AND THE USE THEREOF” (priority 2022, published 2024).
Like-named read-outs stand apart in the source and are kept apart here.

Assays:
[1] = target: T1, RET M918T (Homo sapiens, UniProt P07949, M918T); experiment: ADP-Glo kinase assay, RET M918T; type: biochemical; conditions: recombinant RET (M918T), 120 min room temperature, read-out: Enzyme activity (IC50, nM) RET M918T
T1 construct: Recombinant proteins containing RET wt, RET (M918T) and RET (V804L) domains were purchased from Promega; purchased Promega VA7274
T1 sequence (P07949 724-1016 M918T limits assumed): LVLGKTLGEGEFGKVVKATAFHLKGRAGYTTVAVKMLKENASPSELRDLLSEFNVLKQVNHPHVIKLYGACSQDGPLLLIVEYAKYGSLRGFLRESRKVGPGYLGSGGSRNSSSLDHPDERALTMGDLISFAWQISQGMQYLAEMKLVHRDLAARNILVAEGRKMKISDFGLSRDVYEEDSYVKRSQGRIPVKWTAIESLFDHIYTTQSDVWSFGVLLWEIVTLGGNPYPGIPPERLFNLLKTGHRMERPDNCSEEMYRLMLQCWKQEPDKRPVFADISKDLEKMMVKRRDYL
Experimental: Analysis performed in two steps. First, after kinase reaction, ADP-Glo™ reagent of equal volume was added to finish kinase reaction, and then the rest ATP was exhausted. Second, Kinase Detection Reagent was added to convert ADP to ATP and newly synthesized ATP was measured by luciferase/luciferin reaction at the same time. Generated light was measured by using luminometer. The measured luminescence amount can be applied to the ATP→ADP standard conversion curve to confirm the correlation with the ADP concentration.
Recombinant proteins containing RET wt, RET (M918T) and RET (V804L) domains were purchased from Promega (cat #V8061, cat #VA7274, cat #V4473), respectively. According to the manufacturer's instructions, optimal enzyme, ATP, and substrate concentration were established using ADP-Glo™ Kinase Assay (Promega, USA). […] Then, ADP-Glo™ Reagent (5 μl) was added and reacted at room temperature for further 40 min. Lastly, Kinase Detection Reagent (10 μl) was added and reacted for 30 min more at room temperature, and then phosphorylation of substrate peptide was measured by measuring luciferase signal (Integration time 0.5-1 second) using SpectraMax ID5 reader (Molecular Devices LLC., San Jose, CA, USA). IC50 was calculated by nonlinear regression using Prism version 5.01 (GrapghPad).

[2] = system: MV4-11; experiment: Cell proliferation inhibition in AML cell line MV4-11 (Alamar Blue); type: cell-based; conditions: Homo sapiens, MV4-11, 72 hours, read-out: Cell proliferation inhibitory activity (GI50) MV4-11
Text: (§1) Cell proliferation inhibition experiments on acute myeloid leukemia (AML) cell lines tested FLT3 inhibitory activity using MV4-11, Molm-13, and Molm-14 cells, which are FLT3-ITD-expressed AML cell lines. The origin of all cell lines is human-derived cell lines, and the place of purchase and culture conditions of each cell line are as follows.
(§2) MV4-11 cells were purchased form the American Type Culture Collection (ATCC, Rockville, MD, USA, cat #CRL-9591), Molm-13 (DSMZ, cat #ACC554), Molm-14 (DSMZ, cat #ACC777), and then cultured in RPMI 1640 medium (Corning Co. 10-040-CV) supplemented with 10% fetal bovine serum, 1% penicillin/streptomycin and 4 mM L-glutamine (Life Technology, GrandIsland, NY).
(§3) Cell viability was evaluated by Resazurin redox-based analysis method with Alamar Blue Assay Kit (Invitrogen, USA). Specifically, for MV4-11, Molm-13 and Molm-14 cells, 8000 cells were plated on 384-well plates in 45 μl of medium. Compounds were treated with dimethyl sulfoxide (DMSO) as a negative control group. After 3 days (72 hours) of compound addition, 5 μl of Alamar Blue kit reagent was added to each well of 384-well plate and incubated at 37° C. for 2 hours in a humidified CO2 incubator. After incubation, fluorescence density (Flu) was measured at a wavelength of 544 nm and 590 nm using SpectraMax iD3 Multi Mode Microplate Reader (Molecular Devices, ID3-STD). GI50 was calculated by nonlinear regression using Prism version 5.01 (GraphPad, LaJolla, CA, USA).

[3] = system: Molm-13; experiment: Cell proliferation inhibition in AML cell line Molm-13 (Alamar Blue); type: cell-based; conditions: Homo sapiens, Molm-13, 72 hours, read-out: Cell proliferation inhibitory activity (GI50) Molm-13
Text: as §1, §2, §3

[4] = system: Molm-14; experiment: Cell proliferation inhibition in AML cell line Molm-14 (Alamar Blue); type: cell-based; conditions: Homo sapiens, Molm-14, 72 hours, read-out: Cell proliferation inhibitory activity (GI50) Molm-14
Text: as §1, §2, §3

SMILES | IC50 [1] [nM] | GI50 [2] [pM] | GI50 ([2]; pM) [pM] | GI50 ([3]; pM) [pM] | GI50 ([4]; pM) [pM] | GI50 [3] [pM] | GI50 [4] [pM]
O=C1Nc2ccccc2/C1=C1/Nc2ccccc2/C1=N\OCC(=O)N1CC2(CNC2)C1 [Example 15, (2Z,3E)-3-((2-oxo-2-(2,6-diazaspiro[3.3]heptan-2-yl)ethoxy)imino)-[2,3′-biindolinylidene]-2′-one] | 1.08 | 100000 |  |  |  |  | 
O=C1Nc2ccc(Br)cc2/C1=C1/Nc2ccccc2/C1=N\OCCN1C[C@H]2C[C@@H]1CN2 [Example 13, (2Z,3E)-3-((2-((1R,4R)-2,5-diazabicyclo[2.2.1]heptan-2-yl)ethoxy)imino)-5′-bromo-[2,3′-biindolinylidene]-2′-one] | 1.03 |  | 61 | 200 | 170 |  | 
O=C(CO/N=C1/C(=C2/C(=O)Nc3ccc(F)cc32)Nc2ccccc21)N[C@H]1[C@@H]2CNC[C@@H]21 [Example 19, N-((1R,5S,6s)-3-azabicyclo[3.1.0]hexan-6-yl)-2-(((E)-((Z)-5′-fluoro-2′-oxo-[2,3′-biindolinylidene]-3-ylidene)amino)oxy)acetamide] | 1.39 | 6780 |  |  |  |  | 
O=C1Nc2ccccc2/C1=C1/Nc2ccccc2/C1=N\OCC(=O)N1C[C@H]2C[C@@H]1CN2 [Example 17, (2Z,3E)-3-((2-((1R,4R)-2,5-diazabicyclo[2.2.1]heptan-2-yl)-2-oxoethoxy)imino)-[2,3′-biindolinylidene]-2′-one] | 1.44 | 440 |  |  |  |  | 
O=C1Nc2ccc(F)cc2/C1=C1/Nc2ccccc2/C1=N\OCCN1CC2(CNC2)C1 [Example 6, (2Z,3E)-3-((2-(2,6-diazaspiro[3.3]heptan-2-yl)ethoxy)imino)-5′-fluoro-[2,3′-biindolinylidene]-2′-one] | 0.67 | 15600 |  |  |  |  | 
O=C(CO/N=C1/C(=C2/C(=O)Nc3ccccc32)Nc2ccccc21)N[C@H]1[C@@H]2CNC[C@@H]21 [Example 16, N-((1R,5S,6s)-3-azabicyclo[3.1.0]hexan-6-yl)-2-(((E)-((Z)-2′-oxo-[2,3′-biindolinylidene]-3-ylidene)amino)oxy)acetamide] | 1.19 | 5040 |  |  |  |  | 
O=C1Nc2ccccc2/C1=C1/Nc2ccccc2/C1=N\OCCN1CC2(CNC2)C1 [Example 1, (2Z,3E)-3-((2-(2,6-diazaspiro[3.3]heptan-2-yl)ethoxy)imino)-[2,3′-biindolinylidene]-2′-one] | 0.449 | 12400 |  |  |  |  | 
O=C1Nc2ccccc2/C1=C1/Nc2ccccc2/C1=N\OCCN1C[C@@H]2C[C@H]1CN2 [Example 5, (2Z,3E)-3-((2-((1S,4S)-2,5-diazabicyclo[2.2.1]heptan-2-yl)ethoxy)imino)-[2,3′-biindolinylidene]-2′-one] | 0.771 | 663 |  |  |  | 1780 | 1660
O=C1Nc2ccc(F)cc2/C1=C1/Nc2ccccc2/C1=N\OCCN[C@H]1[C@@H]2CNC[C@@H]21 [Example 7, (2Z,3E)-3-((2-((1R,5S,6s)-3-azabicyclo[3.1.0]hexan-6-ylamino)ethoxy)imino)-5′-fluoro-[2,3′-biindolinylidene]-2′-one] | 0.666 | 5650 |  |  |  |  | 
O=C1Nc2ccc(Cl)cc2/C1=C1/Nc2ccccc2/C1=N\OCCN1C[C@H]2C[C@@H]1CN2 [Example 11, (2Z,3E)-3-((2-((1R,4R)-2,5-diazabicyclo[2.2.1]heptan-2-yl)ethoxy)imino)-5′-chloro-[2,3′-biindolinylidene]-2′-one] | 1.27 |  | 40 | 162 | 100 |  | 
O=C1Nc2ccc(F)cc2/C1=C1/Nc2ccccc2/C1=N\OCC(=O)N1CC2(CNC2)C1 [Example 18, (2Z,3E)-5′-fluoro-3-((2-oxo-2-(2,6-diazaspiro[3.3]heptan-2-yl)ethoxy)imino)-[2,3′-biindolinylidene]-2′-one] | 0.921 | 100000 |  |  |  |  | 
N[C@@H]1[C@H]2CN(CCO/N=C3/C(=C4/C(=O)Nc5ccc(F)cc54)Nc4ccccc43)C[C@@H]12 [Example 8, (2Z,3E)-3-((2-((1R,5S,6s)-6-amino-3-azabicyclo[3.1.0]hexan-3-yl)ethoxy)imino)-5′-fluoro-[2,3′-biindolinylidene]-2′-one] | 0.344 | 90600 |  |  |  |  | 
O=C1Nc2ccccc2/C1=C1/Nc2ccccc2/C1=N\OCCN[C@H]1[C@@H]2CNC[C@@H]21 [Example 2, (2Z,3E)-3-((2-((1R,5S,6s)-3-azabicyclo[3.1.0]hexan-6-ylamino)ethoxy)imino)-[2,3′-biindolinylidene]-2′-one] | 1.25 | 7900 |  |  |  |  | 
O=C1Nc2ccc(F)cc2/C1=C1/Nc2ccccc2/C1=N\OCCN1C[C@H]2C[C@@H]1CN2 [Example 9, (2Z,3E)-3-((2-((1R,4R)-2,5-diazabicyclo[2.2.1]heptan-2-yl)ethoxy)imino)-5′-fluoro-[2,3′-biindolinylidene]-2′-one] | 1.02 | 260 |  | 500 | 470 |  | 
O=C1Nc2ccccc2/C1=C1/Nc2ccccc2/C1=N\OCCN1C[C@H]2C[C@@H]1CN2 [Example 4, (2Z,3E)-3-((2-((1R,4R)-2,5-diazabicyclo[2.2.1]heptan-2-yl)ethoxy)imino)-[2,3′-biindolinylidene]-2′-one] | 0.348 |  |  | 40 | 30 |  | 
O=C1Nc2ccc(F)cc2/C1=C1/Nc2ccccc2/C1=N\OCC(=O)N1C[C@H]2C[C@@H]1CN2 [Example 20, (2Z,3E)-3-((2-((1R,4R)-2,5-diazabicyclo[2.2.1]heptan-2-yl)-2-oxoethoxy)imino)-5′-fluoro-[2,3′-biindolinylidene]-2′-one] | 1.19 | 1320 |  |  |  |  | 
O=C1Nc2ccc(F)cc2/C1=C1/Nc2ccccc2/C1=N\OCCN1C[C@@H]2C[C@H]1CN2 [Example 10, (2Z,3E)-3-((2-((1S,4S)-2,5-diazabicyclo[2.2.1]heptan-2-yl)ethoxy)imino)-5′-fluoro-[2,3′-biindolinylidene]-2′-one] | 0.617 | 685 |  |  |  | 1390 | 1860
N[C@@H]1[C@H]2CN(CCO/N=C3/C(=C4/C(=O)Nc5ccccc54)Nc4ccccc43)C[C@@H]12 [Example 3, (2Z,3E)-3-((2-((1R,5S,6s)-6-amino-3-azabicyclo[3.1.0]hexan-3-yl)ethoxy)imino)-[2,3′-biindolinylidene]-2′-one] | 1.02 | 90600 |  |  |  |  | 
